In one experiment the test system is SGBS cells. The experiment can be described thus: PIRA antagonist assay: insulin stimulated 14C-glucose uptake. The class given is cell-based. The settings on record: SGBS cells (human adipocyte cell line); FIG. 1. On the procedure: In order to identify an insulin receptor binding peptide as an antagonist (PIRA), a candidate peptide can be tested in a glucose uptake assay in e.g. SGBS cells (a human adipocyte cell line) or primary rodent adipocytes. Briefly, the cells are incubated with various concentrations of insulin and subsequently ^14C-glucose uptake is measured. To test a peptide for antagonist properties, a submaximally stimulating concentration of insulin (e.g., resulting in half maximal insulin response) is added and also a dilution series of the peptide to be tested. If the peptide is a PIRA, the insulin induced response is reduced to or below the baseline response with increasing concentration of PIRA and the potency of the PIRA can be estimated from the concentration of PIRA necessary to observe the reduction in response.

The target of a further experiment is insulin receptor (Homo sapiens, UniProt P06213). The experiment can be described thus: Competition binding assay with 125I-labeled cognate ligand, insulin receptor. The settings on record: 125I-labeled ligand. On the procedure:
(§1) To test the selectivity of PIRA S661 for the insulin receptor versus a related receptor, the IGF1 receptor, competition binding assays were carried out using both receptors and their cognate ligands in ^125I-labeled form.

For another experiment, the target named is IGF1 receptor (Homo sapiens, UniProt P08069). Description: Competition binding assay with 125I-labeled cognate ligand, IGF1 receptor. The settings on record: 125I-labeled ligand, affinity too low to be measured. On the procedure:
as §1

The test system of experiment [1] is Zucker Obese rats. Description: Glucose profile after i.v. S661 at different doses followed by i.p. human insulin. The class given is in vivo, rat. As for the experimental part: FIG. 2. Glucose profile in Zucker obese (ZO) male rats after intravenous (i.v.) administration of different doses of peptidic insulin receptor antagonist S661, followed by intraperitoneal (i.p.) administration of human insulin.
Nine groups of 5 or 6 male, 16 week old Zucker Obese rats (Charles River) with an average weight of about 580 gram were kept on ad lib Purina 5008 and ad lib drinking water and fasted overnight for the experiment. The glucose level was tested at 20 minutes and 10 minutes prior to administration of the PIRA designated S661 (described above) Intravenous (i.v.) administration of different doses of S661 in PBS or vehicle was followed by (10 minutes after administration of S661) intraperitoneal (i.p.) administration of different amounts of human insulin in PBS or vehicle. Blood glucose levels were measured at 10, 20, 30, 40, 60, 80, 120, and 180 minutes after injection of insulin.

In experiment [2] the test system is Zucker Obese rats. The experiment can be described thus: Glucose profile after i.v. S661 followed after different times by i.p. human insulin. The class given is in vivo, rat. As to conditions: 30 nmol/kg S661 i.v. at various times before 30 nmol/kg human insulin i.p., FIG. 3. On the procedure:
FIG. 3. Glucose profile in ZO rats after i.v. administration of Insulin Receptor Antagonist, S661, followed after different times by i.p. administration of human insulin.
Eight groups of 5 to 7 male, 15 week old Zucker Obese rats (Charles River) with an average weight of about 550 gram were kept on ad lib Purina 5008 and ad lib drinking water and fasted overnight for the experiment. PIRA S661 in PBS was administered i.v. at 30 nmol/kg at various times before the i.p. administration of 30 nmol/kg human insulin in PBS.

Where [3] appears, read: 3 nmol/kg S661 i.v., 30 nmol/kg insulin i.p., Zucker Obese rats.

Ends that are not written are not given here.

In the case of “GSLDESFYDWFERQLGGGSGGSSLEEEWAQIQCEVWGRGCPSY-amide (GSLDESFYDWFERQLGGGSGGSSLEEEWAQIQCEVWGRGCPSY-NH2; cysteine pairing not given here) [S661, peptidic insulin receptor antagonist]”, in the experiment with SGBS cells, the “effect on submaximally insulin stimulated glucose uptake” value is reported as “inhibition of submaximally insulin stimulated glucose uptake”. Further, in the experiment with insulin receptor, the “affinity for the insulin receptor relative to human insulin” value is given as 48 % of that of human insulin. Moreover, the “affinity for the IGF1 receptor relative to IGF1” value with IGF1 receptor is “at least 200.000 fold lower than that of IGF1”. Besides, in the experiment with Zucker Obese rats [1] (setting [3]), the “glucose levels as compared to control” value was “slightly higher” and the “glucose levels as compared to insulin alone” value was “significantly higher levels”. Moreover, the “blood glucose levels versus insulin alone or only vehicle” value in the experiment on Zucker Obese rats [1] (male Zucker Obese rats, fasted, S661 i.v. 10 minutes before i.p. human insulin, FIG. 2) is reported as “significantly higher”. Besides, the “time after administration at which still an effective antagonist (blood glucose)” value in the experiment with Zucker Obese rats [2] is no less than 6 h.

Values taken from patent US20090197805A1, “Insulin receptor antagonists and related compositions, uses and methods” (Novo Nordisk A/S, priority 2005, published 2009).
